Results as given in US20240358020A1, “FORMAMIDE DERIVATIVE AND AGRICULTURAL OR HORTICULTURAL PLANT DISEASE CONTROL AGENT” (Kumiai Chemical Industry Co., Ltd., priority 2021, published 2024).

Experiments:
Assay type in all cases: in vivo
[1] = test system: Rice Sheath Blight Disease (Rhizoctonia solani); assay: Rice sheath blight disease control effect test; conditions: chemical solution 50 ppm active ingredient sprayed on rice seedlings, then inoculated with bran medium culture; lesion height examined after 5 days
Text: (§1) [in the formula, N represents the total number of examined leaves, n0 represents the number of leaves having a disease severity index of 0, n1 represents the number of leaves having a disease severity index of 1, n2 represents the number of leaves having a disease severity index of 2, n3 represents the number of leaves having a disease severity index of 3, and n4 represents the number of leaves having a disease severity index of 4.]
[Test Example 3] Rice Sheath Blight Disease (Rhizoctonia solani) Control Effect Test
Rice seeds were sown in a pot, and a chemical solution was sprayed on the grown seedlings so that the concentration of the active ingredient was 50 ppm. Thereafter, a bran medium in which a rice sheath blight fungi was cultured was inoculated into the strain, the bran medium was transferred to a wet room, and invasion of pathogens was promoted. Thereafter, the pot was managed in a greenhouse, after 5 days, a lesion height was examined according to the criteria in Table 221 to determine a degree of disease severity by a calculation formula of Equation 1, and a control value was determined by a calculation formula of Equation 2.

[2] = test system: Wheat rust (Puccinia recondita); assay: Wheat rust control effect test; conditions: chemical solution 50 ppm active ingredient sprayed on wheat seedlings, then spray-inoculated; first leaf examined after 9 days
Text: as §1
[Test Example 2] Wheat rust (Puccinia recondita) control effect test Wheat seeds were sown in a pot, and a chemical solution was sprayed on the grown seedlings so that the concentration of the active ingredient was 50 ppm. Thereafter, a wheat rust fungus was spray-inoculated, the pot was transferred to a wet room and was kept under dark conditions, and invasion of pathogens was promoted. Thereafter, the pot was managed in a greenhouse, after 9 days, a degree of disease severity for each first leaf was examined according to the criteria in Table 220 to determine a degree of disease severity by a calculation formula of Equation 1, and a control value was determined by a calculation formula of Equation Formula 2.

[3] = test system: Soybean Rust (Phakopsora pachyrhizi); assay: Soybean rust control effect test; conditions: sprayed on soybean seedlings at 100 g a.i./ha, then spray-inoculated; disease severity of first leaf examined after 12 to 14 days
Text: [Test Example 1] Soybean Rust (Phakopsora pachyrhizi) Control Effect Test
Soybean seeds were sown in a pot and sprayed on the grown seedlings so that the amount of the active ingredient was 100 g a.i./ha. Thereafter, a soybean rust fungus was spray-inoculated, the pot was transferred to a wet room and was kept under dark conditions, and invasion of pathogens was promoted. Thereafter, the pot was managed in a greenhouse, after 12 to 14 days, a degree of disease severity for each first leaf was examined according to the criteria in Table 226 to determine a degree of disease severity by a calculation formula of Equation 1, and a control value was determined by a calculation formula of Equation 2.
as §1

Which results are given for `CCC(=O)N(Cc1ccccc1)c1ccc(-c2noc(C(F)(F)F)n2)cc1` [comparative compound]?
control value [1]: ≤ 12.5; control value [2]: ≤ 12.5; control value [3]: less than 60
